# Test results reported in patent US20200397894A1, “COMPOSITIONS AND METHODS FOR TREATING CANCER” (University of Virginia Patent Foundation, priority 2016, published 2020).
# How the values were obtained:
# Format in all cases: cell-based, human
# DM93 cells = experiment: Cell cycle distribution and rereplication by propidium iodide staining and FACS; conditions: for DM93 cells exhibiting >4N DNA content / Percent Cells in S and G2/M / Percent Cells in sub-G1: 1 μM pevonedistat; for Percent Cells in S and G2/M / Percent Cells in sub-G1 / Percent of Cells in S and G2/M / Percent of Cells in sub-G1: DM93 cells; for rereplication after transient exposure and washout: analyzed 48 hours later
# Protocol: The effects of pevonedistat, vemurafenib, and/or silencing of various cell cycle-associated proteins by siRNA on cell cycle distribution and rereplication were assessed by propidium iodide staining and flow cytometry of asynchronous melanoma cultures. Synchronization of cells was not employed to avoid bias and to be able to measure the impact of these perturbations on proliferating cancer cells. […] Cells were washed with cold PBS, harvested, and fixed in 70% (v/v) ethanol. Cells were subsequently treated with 20 μg of DNase-free RNase and stained with propidium iodide according to instructions of the manufacturer. Samples were analyzed on a FACSCAN™ (Becton, Dickinson and Company, Franklin Lakes, N.J., United States of America) and G0-G1, S, and G2-M fractions were segmented, and apoptotic (sub-G1 DNA content) and rereplicating (>G2/M DNA content) fractions were determined using FLOWJO® (FLOWJO, LLC, Ashland, Oreg., United States of America) and ModFit (Verity Software House, Topsham, Me., United States of America) software.
# DM13 cells = experiment: Rereplication by propidium iodide staining and FACS
# Protocol: (§1) The effects of pevonedistat, vemurafenib, and/or silencing of various cell cycle-associated proteins by siRNA on cell cycle distribution and rereplication were assessed by propidium iodide staining and flow cytometry of asynchronous melanoma cultures. Synchronization of cells was not employed to avoid bias and to be able to measure the impact of these perturbations on proliferating cancer cells. Briefly, asynchronous melanoma cell lines were treated with pevonedistat or vemurafenib, or transfected with si-CDT1, si-CDT2, si-SET8, si-p21, sigeminin, si-EMI1, or si-GL2 for a time ranging from 24 to 96 hours. Cells were washed with cold PBS, harvested, and fixed in 70% (v/v) ethanol. Cells were subsequently treated with 20 μg of DNase-free RNase and stained with propidium iodide according to instructions of the manufacturer. Samples were analyzed on a FACSCAN™ (Becton, Dickinson and Company, Franklin Lakes, N.J., United States of America) and G0-G1, S, and G2-M fractions were segmented, and apoptotic (sub-G1 DNA content) and rereplicating (>G2/M DNA content) fractions were determined using FLOWJO® (FLOWJO, LLC, Ashland, Oreg., United States of America) and ModFit (Verity Software House, Topsham, Me., United States of America) software.
# DM331 cells = experiment: as above; conditions: DM331, 1 μM pevonedistat
# Protocol: as §1
# SK-MEL-28 cells = experiment: as above; conditions: SK-MEL-28, 1 μM pevonedistat
# Protocol: as §1
# SLM2 melanoma cells = experiment: as above
# Protocol: as §1
# VMM1 cells = experiment: as above
# Protocol: as §1
# VMM18 cells = experiment: as above; conditions: VMM18, 1 μM pevonedistat
# Protocol: as §1
# VMM39 cells = experiment: as above; conditions: VMM39, 1 μM pevonedistat
# Protocol: as §1
# [1] = test system: cullin ubiquitylation substrates (CDT2, CDT1, p21, p27) in DM93 cells; experiment: Immunoblotting of cullin ubiquitylation substrates; conditions: DM93, increasing doses for 24 hours; significant levels at 1 μM
# Protocol: Melanoma cells were lysed with RIPA lysis buffer (50 mM Tris, pH 8.0; 150 mM NaCl, 1% NP-40; 0.5% sodium deoxycholate; 0.1% SDS; 1 mM Benzamidine-HCl; 0.5 μg/ml Leupeptin; 0.5 μg/ml Aprotinin; 1 μg/ml pepstatin; 20 mM NaF; 20 mM Na3VO4), and equal amounts of protein were electrophoretically separated in a polyacrylamide 8-12% gel (Bio-Rad Laboratories, Inc., Hercules, Calif., United States of America), trans-blotted to a nitrocellulose membrane, and incubated overnight with primary antibodies at 4° C. The following antibodies were used: Anti-p21 (C19), anti-p27 (C19), anti-p53 (DO-1), and anti-tubulin (10D8) were purchased from Santa Cruz Biotechnology, Inc. (California, United States of America). Antibodies against SET8, CHK1, CHK2, p-CHK1 (S375), p-CHK2 (T68), H2AX and p-H2AX (γH2AX; T139), and PARP were purchased from Cell Signaling Technology, Inc. (Danvers, Mass., United States of America). Anti-Cul3 was purchased from Bethyl Laboratories (Montgomery, Tex., United States of America). Anti-CDT1 and anti-CDT2 antibodies were described before (Abbas et al., 2010). The immunoblot signals were detected by enhanced chemiluminescence. For murine melanoma xenografts, tumors were isolated, washed three times with cold PBS, and frozen at −80° C. until use. […]
# [2] = 24 hours, 0.025 μM pevonedistat
# [3] = 24 hours, 0.100 μM pevonedistat
# [4] = 24 hours, 0.500 μM pevonedistat (first row so printed, r9)
# [5] = 24 hours, 0.500 μM pevonedistat (r11)
# [6] = 24 hours, 0.750 μM pevonedistat
# [7] = 24 hours, 1.000 μM pevonedistat
# [8] = 24 hours, 2.000 μM pevonedistat
compound,measurement,setting,value
"NS(=O)(=O)OCC1CC(n2ccc3c(NC4CCc5ccccc54)ncnc32)CC1O [pevonedistat, ((1S,2S,4R)-4-(4-((1S)-2,3-Dihydro-H-inden-1-ylamino)-7H-pyrrolo(2,3-d)pyrimidin-7-yl)-2-hydroxycyclopentyl)methyl sulphamate]",DM93 cells exhibiting >4N DNA content,DM93 cells; by 72 hours of treatment,68%
same,DM93 cells exhibiting >4N DNA content,DM93 cells; within 24 hours,18%
same,cells undergoing rereplication,"DM93 cells; DM93, 1 μM pevonedistat for 48 hours",45%
same,Percent of Cells in S and G2/M at 24 hours,"DM93 cells; DM93, 1 μM pevonedistat, 24 hours",27.2%
same,Percent of Cells in S and G2/M at 72 Hours,"DM93 cells; DM93, 1 μM pevonedistat, 72 hours",59.2%
same,cells undergoing rereplication,"DM93 cells; DM93, 72 hours post-treatment",60%
same,lowest drug concentration at which rereplication was observed,"DM93 cells; DM93, analyzed at 24 hours",500 nM
same,cells with sub-G1 DNA content,"DM93 cells; DM93, pevonedistat, 72 hours",~7%
same,Percent Cells in S and G2/M,DM93 cells; 3 hours,4.05%
same,Percent Cells in sub-G1,DM93 cells; 3 hours,1.94%
same,Percent Cells in S and G2/M,DM93 cells; 6 hours,13%
same,Percent Cells in sub-G1,DM93 cells; 6 hours,0.49%
same,Percent Cells in S and G2/M,DM93 cells; 24 hours,17%
same,Percent Cells in sub-G1,DM93 cells; 24 hours,1.4%
same,Percent Cells in S and G2/M,DM93 cells; 48 hours,64.7%
same,Percent Cells in sub-G1,DM93 cells; 48 hours,2.08%
same,Percent Cells in S and G2/M,DM93 cells; 72 hours,68.3%
same,Percent Cells in sub-G1,DM93 cells; 72 hours,7.08%
same,Percent of Cells in S and G2/M,DM93 cells; [2],0.57%
same,Percent of Cells in sub-G1,DM93 cells; [2],1.72%
same,Percent of Cells in S and G2/M,DM93 cells; [3],2.21%
same,Percent of Cells in sub-G1,DM93 cells; [3],5.62%
same,Percent of Cells in S and G2/M,DM93 cells; [4],1.11%
same,Percent of Cells in sub-G1,DM93 cells; [4],1.61%
same,Percent of Cells in S and G2/M,DM93 cells; [5],18.1%
same,Percent of Cells in sub-G1,DM93 cells; [5],4.49%
same,Percent of Cells in S and G2/M,DM93 cells; [6],47.4%
same,Percent of Cells in sub-G1,DM93 cells; [6],2.05%
same,Percent of Cells in S and G2/M,DM93 cells; [7],56.6%
same,Percent of Cells in sub-G1,DM93 cells; [7],1.21%
same,Percent of Cells in S and G2/M,DM93 cells; [8],66%
same,Percent of Cells in sub-G1,DM93 cells; [8],0.53%
same,rereplication after transient exposure and washout,DM93 cells; treated 12 hours,18%
same,rereplication after transient exposure and washout,DM93 cells; treated 24 hours,60%
same,Percent of Cells in S and G2/M at 24 hours,"DM13 cells; DM13, 1 μM pevonedistat, 24 hours",10.4%
same,Percent of Cells in S and G2/M at 72 Hours,"DM13 cells; DM13, 1 μM pevonedistat, 72 hours",13.7%
same,cells undergoing rereplication,"DM13 cells; DM13, 72 hours post-treatment",13.7%
same,Percent of Cells in S and G2/M at 24 hours,DM331 cells; 24 hours,47.8%
same,Percent of Cells in S and G2/M at 72 Hours,DM331 cells; 72 hours,63.2%
same,Percent of Cells in S and G2/M at 24 hours,SK-MEL-28 cells; 24 hours,38.7%
same,Percent of Cells in S and G2/M at 72 Hours,SK-MEL-28 cells; 72 hours,55.9%
same,Percent of Cells in S and G2/M at 24 hours,"SLM2 melanoma cells; SLM2, 1 μM pevonedistat, 24 hours",46.8%
same,Percent of Cells in S and G2/M at 72 Hours,"SLM2 melanoma cells; SLM2, 1 μM pevonedistat, 72 hours",50.2%
same,cells with rereplication,"SLM2 melanoma cells; SLM2, 72 hours post-treatment",more than 58%
same,Percent of Cells in S and G2/M at 24 hours,"VMM1 cells; VMM1, 1 μM pevonedistat, 24 hours",7.72%
same,Percent of Cells in S and G2/M at 72 Hours,"VMM1 cells; VMM1, 1 μM pevonedistat, 72 hours",30.8%
same,cells undergoing rereplication,"VMM1 cells; VMM1, 72 hours post-treatment",25%
same,Percent of Cells in S and G2/M at 24 hours,VMM18 cells; 24 hours,7.83%
same,Percent of Cells in S and G2/M at 72 Hours,VMM18 cells; 72 hours,16.9%
same,Percent of Cells in S and G2/M at 24 hours,VMM39 cells; 24 hours,37.9%
same,Percent of Cells in S and G2/M at 72 Hours,VMM39 cells; 72 hours,33.8%
same,"cullin ubiquitylation substrates CDT2, CDT1, p21 and p27",[1],dose-dependent increase
